Data: ChEMBL document CHEMBL1201862, “PubChem BioAssay data set” (2004)
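Values below derive from 48-hour exposures of cells grown in 96-well plates, with endpoints linearly interpolated between the two concentrations bracketing the appropriate inhibition level. GI50: concentration for 50% inhibition of growth.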 Calls of active or inactive are those of the source. Rule as the data show it: active = GI50 up to about 1.1 µM and inactive = higher.

What was measured:
Test in all cases: NCI tumour cell line growth inhibition, 48 h
[1] = tested on: 786-0
[2] = tested on: A498
[3] = tested on: A549
[4] = tested on: ACHN
[5] = tested on: CAKI-1
[6] = tested on: CCRF-CEM
[7] = tested on: COLO 205
[8] = tested on: DLD-1
[9] = tested on: DMS-114
[10] = tested on: EKVX
[11] = tested on: HCC 2998
[12] = tested on: HCT-116
[13] = tested on: HCT-15
[14] = tested on: HL-60
[15] = tested on: HOP-18
[16] = tested on: HOP-62
[17] = tested on: HOP-92
[18] = tested on: HT-29
[19] = tested on: IGROV-1
[20] = tested on: K562
[21] = tested on: KM-20L2
[22] = tested on: KM12
[23] = tested on: LOX IMVI
[24] = tested on: LXFL 529
[25] = tested on: M14
[26] = tested on: M19-MEL
[27] = tested on: MOLT-4
[28] = tested on: Malme-3M
[29] = tested on: NCI-H226
[30] = tested on: NCI-H23
[31] = tested on: NCI-H460
[32] = tested on: NCI-H522
[33] = tested on: OVCAR-3
[34] = tested on: OVCAR-4
[35] = tested on: OVCAR-5
[36] = tested on: OVCAR-8
[37] = tested on: RPMI-8226
[38] = tested on: RXF 393
[39] = tested on: SF-268
[40] = tested on: SF-295
[41] = tested on: SK-OV-3
[42] = tested on: SN12C
[43] = tested on: SNB-19
[44] = tested on: SNB-75
[45] = tested on: SNB-78
[46] = tested on: SR
[47] = tested on: SW-620
[48] = tested on: TK-10
[49] = tested on: U-251
[50] = tested on: UACC-257
[51] = tested on: UACC-62
[52] = tested on: UO-31
[53] = tested on: XF498
[54] = tested on: DMS-273
[55] = tested on: SF-539
[56] = tested on: SK-MEL-28
[57] = tested on: SK-MEL-5
[58] = tested on: SK-MEL-2

Q: For `COC(=O)C(=O)C(C(=O)C(=O)Nc1ccc(OC)cc1[N+](=O)[O-])c1nc2ccc([N+](=O)[O-])cc2nc1O` (stereo unspecified), which GI50 [1] is on record?
A: > 100 µM (inactive)

Q: What about the GI50 [2] of the same molecule?
A: > 100 µM (inactive)

Q: And the GI50 [3]?
A: > 100 µM (inactive)

Q: What about the GI50 [4] of the same molecule?
A: > 100 µM (inactive)

Q: What about the GI50 [5] of the same molecule?
A: > 100 µM (inactive)

Q: What about the GI50 [6] of the same molecule?
A: > 100 µM (inactive)

Q: What about the GI50 [7] of the same molecule?
A: > 100 µM (inactive)

Q: What about the GI50 [8] of the same molecule?
A: > 100 µM (inactive)

Q: And the GI50 [9]?
A: > 100 µM (inactive)

Q: And the GI50 [10]?
A: > 100 µM (inactive)

Q: And the GI50 [11]?
A: > 100 µM (inactive)

Q: And the GI50 [12]?
A: > 100 µM (inactive)

Q: And the GI50 [13]?
A: > 100 µM

Q: And the GI50 [14]?
A: > 100 µM (inactive)

Q: What about the GI50 [15] of the same molecule?
A: > 100 µM (inactive)

Q: What about the GI50 [16] of the same molecule?
A: > 100 µM (inactive)

Q: And the GI50 [17]?
A: > 100 µM (inactive)

Q: What about the GI50 [18] of the same molecule?
A: > 100 µM (inactive)

Q: What about the GI50 [19] of the same molecule?
A: > 100 µM (inactive)

Q: And the GI50 [20]?
A: > 100 µM (inactive)

Q: What about the GI50 [21] of the same molecule?
A: > 100 µM (inactive)

Q: And the GI50 [22]?
A: > 100 µM (inactive)

Q: What about the GI50 [23] of the same molecule?
A: > 100 µM (inactive)

Q: What about the GI50 [24] of the same molecule?
A: > 100 µM (inactive)

Q: And the GI50 [25]?
A: > 100 µM (inactive)

Q: And the GI50 [26]?
A: > 100 µM (inactive)

Q: What about the GI50 [27] of the same molecule?
A: > 100 µM (inactive)

Q: And the GI50 [28]?
A: > 100 µM (inactive)

Q: What about the GI50 [29] of the same molecule?
A: > 100 µM (inactive)

Q: And the GI50 [30]?
A: > 100 µM (inactive)

Q: What about the GI50 [31] of the same molecule?
A: > 100 µM (inactive)

Q: What about the GI50 [32] of the same molecule?
A: > 100 µM (inactive)

Q: And the GI50 [33]?
A: > 100 µM (inactive)

Q: And the GI50 [34]?
A: > 100 µM (inactive)

Q: What about the GI50 [35] of the same molecule?
A: > 100 µM (inactive)

Q: And the GI50 [36]?
A: > 100 µM (inactive)

Q: What about the GI50 [37] of the same molecule?
A: > 100 µM (inactive)

Q: What about the GI50 [38] of the same molecule?
A: > 100 µM (inactive)

Q: What about the GI50 [39] of the same molecule?
A: > 100 µM (inactive)

Q: And the GI50 [40]?
A: > 100 µM (inactive)

Q: And the GI50 [41]?
A: > 100 µM (inactive)

Q: And the GI50 [42]?
A: > 100 µM (inactive)

Q: And the GI50 [43]?
A: > 100 µM (inactive)

Q: What about the GI50 [44] of the same molecule?
A: 26.5 µM (inactive)

Q: What about the GI50 [45] of the same molecule?
A: > 100 µM (inactive)

Q: And the GI50 [46]?
A: > 100 µM (inactive)

Q: And the GI50 [47]?
A: > 100 µM (inactive)

Q: What about the GI50 [48] of the same molecule?
A: > 100 µM (inactive)

Q: And the GI50 [49]?
A: > 100 µM (inactive)

Q: And the GI50 [50]?
A: > 100 µM (inactive)

Q: What about the GI50 [51] of the same molecule?
A: > 100 µM (inactive)

Q: And the GI50 [52]?
A: > 100 µM (inactive)

Q: And the GI50 [53]?
A: > 100 µM (inactive)

Q: What does the source list for `COc1ccccc1NC(=O)CC(=O)NNCC(=O)Nc1nc(-c2ccccc2)cs1`?
A: GI50 [1]: > 100 µM (inactive); GI50 [3]: > 100 µM (inactive); GI50 [6]: > 100 µM (inactive); GI50 [7]: > 100 µM (inactive); GI50 [8]: > 100 µM (inactive); GI50 [9]: > 100 µM (inactive); GI50 [54]: > 100 µM (inactive); GI50 [10]: > 100 µM (inactive); GI50 [11]: 4.1 µM (inactive); GI50 [12]: > 100 µM (inactive); GI50 [14]: > 100 µM (inactive); GI50 [15]: > 100 µM (inactive); GI50 [16]: > 100 µM (inactive); GI50 [18]: > 100 µM (inactive); GI50 [19]: > 100 µM (inactive); GI50 [20]: > 100 µM (inactive); GI50 [21]: > 100 µM (inactive); GI50 [22]: > 100 µM (inactive); GI50 [23]: > 100 µM (inactive); GI50 [24]: > 100 µM (inactive); GI50 [25]: > 100 µM (inactive); GI50 [26]: > 100 µM (inactive); GI50 [27]: > 100 µM (inactive); GI50 [29]: 40.6 µM (inactive); GI50 [30]: > 100 µM (inactive); GI50 [31]: > 100 µM (inactive); GI50 [32]: > 100 µM (inactive); GI50 [33]: > 100 µM (inactive); GI50 [34]: > 100 µM (inactive); GI50 [36]: > 100 µM (inactive); GI50 [37]: > 100 µM (inactive); GI50 [38]: > 100 µM (inactive); GI50 [39]: > 100 µM (inactive); GI50 [40]: > 100 µM (inactive); GI50 [55]: > 100 µM (inactive); GI50 [56]: > 100 µM (inactive); GI50 [57]: > 100 µM (inactive); GI50 [41]: > 100 µM (inactive); GI50 [42]: > 100 µM (inactive); GI50 [43]: > 100 µM (inactive); GI50 [44]: > 100 µM (inactive); GI50 [45]: > 100 µM (inactive); GI50 [47]: > 100 µM (inactive); GI50 [48]: > 100 µM (inactive); GI50 [49]: > 100 µM (inactive); GI50 [51]: > 100 µM (inactive)

Q: For `C/C(=C\Cc1cc(O)ccc1O)CCc1c(C)c(O)c(O)c(C=O)c1C` [PANICEIN C], which GI50 [1] is on record?
A: 25.6 µM (inactive)

Q: And the GI50 [2]?
A: 49.2 µM (inactive)

Q: And the GI50 [3]?
A: 30.4 µM (inactive)

Q: And the GI50 [4]?
A: 20.3 µM (inactive)

Q: What about the GI50 [5] of the same molecule?
A: 26.7 µM (inactive)

Q: What about the GI50 [6] of the same molecule?
A: 3.28 µM (inactive)

Q: And the GI50 [7]?
A: 18.6 µM (inactive)

Q: What about the GI50 [8] of the same molecule?
A: 21.1 µM (inactive)

Q: What about the GI50 [9] of the same molecule?
A: 18 µM (inactive)

Q: What about the GI50 [54] of the same molecule?
A: 27.5 µM (inactive)

Q: And the GI50 [10]?
A: 36.1 µM (inactive)

Q: And the GI50 [11]?
A: 47.9 µM (inactive)

Q: What about the GI50 [12] of the same molecule?
A: 19.1 µM (inactive)

Q: And the GI50 [13]?
A: 31.4 µM

Q: And the GI50 [14]?
A: > 100 µM (inactive)

Q: And the GI50 [15]?
A: 18.7 µM (inactive)

Q: What about the GI50 [17] of the same molecule?
A: 15.7 µM (inactive)

Q: What about the GI50 [18] of the same molecule?
A: 29.2 µM (inactive)

Q: What about the GI50 [19] of the same molecule?
A: 17.1 µM (inactive)

Q: And the GI50 [20]?
A: > 100 µM (inactive)

Q: What about the GI50 [21] of the same molecule?
A: 37.5 µM (inactive)

Q: And the GI50 [22]?
A: 20.3 µM (inactive)

Q: And the GI50 [24]?
A: 9.64 µM (inactive)

Q: What about the GI50 [25] of the same molecule?
A: 25.5 µM (inactive)

Q: What about the GI50 [26] of the same molecule?
A: 17.7 µM (inactive)

Q: What about the GI50 [27] of the same molecule?
A: 17.1 µM (inactive)

Q: What about the GI50 [28] of the same molecule?
A: 32.9 µM (inactive)

Q: What about the GI50 [29] of the same molecule?
A: 34.5 µM (inactive)

Q: What about the GI50 [30] of the same molecule?
A: 18.4 µM (inactive)

Q: What about the GI50 [31] of the same molecule?
A: 23.8 µM (inactive)

Q: And the GI50 [32]?
A: 5.24 µM (inactive)

Q: What about the GI50 [33] of the same molecule?
A: 21.2 µM (inactive)

Q: What about the GI50 [34] of the same molecule?
A: 26.5 µM (inactive)

Q: And the GI50 [36]?
A: 17.9 µM (inactive)

Q: And the GI50 [37]?
A: 17.4 µM (inactive)

Q: And the GI50 [38]?
A: 16.1 µM (inactive)

Q: And the GI50 [39]?
A: 27 µM (inactive)

Q: What about the GI50 [40] of the same molecule?
A: 25.4 µM (inactive)

Q: And the GI50 [55]?
A: 18.4 µM (inactive)

Q: And the GI50 [56]?
A: 18.1 µM (inactive)

Q: And the GI50 [58]?
A: 23.2 µM (inactive)

Q: What about the GI50 [57] of the same molecule?
A: 15.5 µM (inactive)

Q: What about the GI50 [41] of the same molecule?
A: 26.7 µM (inactive)

Q: What about the GI50 [42] of the same molecule?
A: 26.7 µM (inactive)

Q: What about the GI50 [43] of the same molecule?
A: 35.2 µM (inactive)

Q: What about the GI50 [44] of the same molecule?
A: 33.3 µM (inactive)

Q: What about the GI50 [46] of the same molecule?
A: 7.38 µM (inactive)

Q: What about the GI50 [47] of the same molecule?
A: 35.6 µM (inactive)

Q: What about the GI50 [48] of the same molecule?
A: 48.2 µM (inactive)

Q: What about the GI50 [49] of the same molecule?
A: 18.6 µM (inactive)

Q: What about the GI50 [52] of the same molecule?
A: 28.2 µM (inactive)

Q: What about the GI50 [53] of the same molecule?
A: 20 µM (inactive)
